Measurements taken from US20250270170A1, “2,3-DIMETHOXY-5-METHYL-1,4-BENZOQUINONE ALKYL ALCOHOL DERIVATIVE AND USE THEREOF” (BEIJING ANJIANXI BIO-MEDICAL TECHNOLOGY CO., LTD., priority 2021, published 2025).
Entries after “also recorded” stand apart in the source; their conditions may differ. Marks after values point to notes of the source that are not given here.

Assays:
[1] = Example 3: body weight of NCI-N87 tumor-bearing nude mice; type: in vivo, BALB/c nude mice
Procedure: The NCI-N87 cells in the logarithmic growth phase were collected, counted and resuspended in a serum-free RPMI-1640 medium, and the cell concentration was adjusted to 5×10^7 cells/mL. The cells were pipetted with a pipette to disperse them evenly, and the cells were put into a 50-mL centrifuge tube, which was placed in an ice box. A 1-mL syringe was used to draw the cell suspension, which was injected subcutaneously into the axilla of the front right limb of a nude mouse. Each animal was inoculated with 100 μL (5×10^6 cells/mouse) to establish an NCI-N87 transplanted tumor model in nude mice. After the inoculation, the animal status and tumor growth were regularly observed, and the tumor diameter was measured using an electronic vernier caliper. The data were input into an Excel spreadsheet to calculate the tumor volume. When the tumor volume reached 100 to 300 mm^3, 72 animals in good health and with similar tumor volumes were selected and divided into 9 groups (n=8) using randomized block method. The day of grouping was regarded as the first day of the assay (D1). After the start of the assay, the tumor diameter was measured twice a week, the tumor volume was calculated, and the animal body weight was also weighed and recorded. [table] The calculation formula of animal weight loss rate is: wherein BWt represents the animal body weight measured each time during the administration period; BWinitial represents the animal body weight when being grouped for administration. The assay data were calculated and processed statistically using Microsoft Office Excel 2007 software. Unless otherwise specified, the data were expressed as mean±standard error (Mean±SE), and t-test was used for comparison between two groups.

[2] = test system: VEGF/VEGFR/p-VEGFR and other proteins in NCI-N87 transplanted tumor tissues; test: Example 4: Western blot of NCI-N87 transplanted tumor tissue proteins; type: in vivo, nude mice; settings: Western blot grayscale vs blank solvent group, compound of formula (I) 2 mg/kg, 2 mg/kg
Procedure: Western Blot technology was used to quantitatively detect the expression of VEGF/VEGFR, Survivin and other proteins in tumor tissues. […] In this study, 50 μg of tumor tissue proteins were added to each well, and the working concentrations of the antibodies were diluted according to the instructions. Briefly: the tumor tissue was taken, lysed with an RIPA protein lysis solution containing 1% PMSF and mixed protease inhibitors, and centrifuged at 12000×g for 20 min to take the supernatant; the concentration of proteins was detected by BCA method; 10% SDS-PAGE gel electrophoresis was performed; the proteins from SDS-PAGE gel were transfered to a PVDF membrane by semi-dry […]; the membrane was blocked with a fast blocking buffer for 10 minutes, and a primary antibody at corresponding working concentration was added, and incubated at 4° C. overnight; the membrane was washed with TBST for 3 times, and incubated with a secondary antibody at room temperature for 1 h; after washing the membrane three times, an image was developed and saved, and the grayscale values were analyzed with Image lab; the anti-Vinculin antibody was used as an internal reference control antibody.
The grayscale of the Western blot bands were calculated with Image J software, and Graphpad Prism 5 was used for related statistical processing. A two-sided t-test was used for comparison between two groups. P>0.05 means no significance (NS), P<0.05 is *, […], and P<0.001 is ***.

[3] = test system: human gastric cancer NCI-N87 transplanted tumor; test: Example 7: tumor growth in NCI-N87 transplanted tumor model, alone and combined with DDP; type: in vivo, nude mice; settings: for Mean tumor volume / tumor growth inhibition rate (TGI): R01 16 mg/kg PO QD×32
[4] = Example 7: serum UREA content; type: in vivo, nude mice; settings: mouse, in vivo, po, 16 mg/kg
[5] = Example 9: serum urea nitrogen (BUN) at the end of the assay; type: in vivo, nude mice; settings: mouse, in vivo
Procedure: On the last day of the assay, CO2 inhalation anesthesia was used on the animals 1 hour after the administration (R01). Blood was collected through the heart, and a part of the whole blood was added with EDTA-K2 for anticoagulation. The plasma was separated by centrifugation at 4° C. and 1500 g for 10 minutes. The plasma was collected, and stored in a −40° C. to −20° C. freezer (if necessary, it can be used for the determination of the plasma drug concentration). No anticoagulant was added to the other part of the whole blood, and the serum was separated by centrifugation after the blood coagulated, which was used for the detection of blood urea nitrogen. After the blood collection, the tumor tissue was collected, weighed and photographed. Then, the tumor was divided into two parts, quickly cryopreserved by liquid nitrogen, and transferred to a −90° C. to −60° C. freezer for storage. Bilateral kidneys were collected and fixed in 10% formalin.

## COC1=C(OC)C(=O)C(CCCCCCCCCCOC(=O)Cc2c(C)n(C(=O)c3ccc(Cl)cc3)c3ccc(OC)cc23)=C(C)C1=O [compound of formula (I)]
[1]; D13, 2 mg/kg i.g. BID×28
  Mean animal body weight: 18.3 ± 0.4 g
[1]; D13, 6 mg/kg i.g. BID×28
  Mean animal body weight: 17.6 ± 0.3 g
[1]; D13, 18 mg/kg i.g. BID×28
  Mean animal body weight: 17.9 ± 0.5 g
[1]; D16, 2 mg/kg i.g. BID×28
  Mean animal body weight: 18.2 ± 0.5 g
  body weight loss rate: (0.41%)
[1]; D16, 6 mg/kg i.g. BID×28
  Mean animal body weight: 17.6 ± 0.3 g
  body weight loss rate: (0.28%)
[1]; D16, 18 mg/kg i.g. BID×28
  Mean animal body weight: 17.7 ± 0.4 g
  body weight loss rate: (1.0%)
[1]; D20, 2 mg/kg i.g. BID×28
  Mean animal body weight: 18.2 ± 0.4 g
  body weight loss rate: (0.27%)
[1]; D20, 6 mg/kg i.g. BID×28
  Mean animal body weight: 17.5 ± 0.4 g
  body weight loss rate: (0.50%)
[1]; D20, 18 mg/kg i.g. BID×28
  Mean animal body weight: 17.8 ± 0.3 g
  body weight loss rate: (0.56%)
[1]; D23, 2 mg/kg i.g. BID×28
  Mean animal body weight: 18.5 ± 0.5 g
  body weight loss rate: (−1.0%)
[1]; D23, 6 mg/kg i.g. BID×28
  Mean animal body weight: 18.1 ± 0.5 g
  body weight loss rate: (−2.7%)
[1]; D23, 18 mg/kg i.g. BID×28
  Mean animal body weight: 18.0 ± 0.4 g
  body weight loss rate: (−0.42%)
[1]; D27, 2 mg/kg i.g. BID×28
  Mean animal body weight: 18.7 ± 0.5 g
  body weight loss rate: (−2.5%)
[1]; D27, 6 mg/kg i.g. BID×28
  Mean animal body weight: 18.3 ± 0.5 g
  body weight loss rate: (−3.7%)
[1]; D27, 18 mg/kg i.g. BID×28
  Mean animal body weight: 18.1 ± 0.3 g
  body weight loss rate: (−1.0%)
[1]; D30, 2 mg/kg i.g. BID×28
  Mean animal body weight: 18.9 ± 0.4 g
  body weight loss rate: (−3.4%)
[1]; D30, 6 mg/kg i.g. BID×28
  Mean animal body weight: 18.3 ± 0.4 g
  body weight loss rate: (−4.0%)
[1]; D30, 18 mg/kg i.g. BID×28
  Mean animal body weight: 18.4 ± 0.4 g
  body weight loss rate: (−2.7%)
[1]; D34, 2 mg/kg i.g. BID×28
  Mean animal body weight: 19.3 ± 0.5 g
  body weight loss rate: (−5.8%)
[1]; D34, 6 mg/kg i.g. BID×28
  Mean animal body weight: 18.5 ± 0.4 g
  body weight loss rate: (−5.1%)
[1]; D34, 18 mg/kg i.g. BID×28
  Mean animal body weight: 18.7 ± 0.4 g
  body weight loss rate: (−4.3%)
[1]; D37, 2 mg/kg i.g. BID×28
  Mean animal body weight: 19.5 ± 0.5 g
  body weight loss rate: (−6.5%)
[1]; D37, 6 mg/kg i.g. BID×28
  Mean animal body weight: 18.6 ± 0.4 g
  body weight loss rate: (−5.8%)
[1]; D37, 18 mg/kg i.g. BID×28
  Mean animal body weight: 18.8 ± 0.4 g
  body weight loss rate: (−4.8%)
[1]; D44, 2 mg/kg i.g. BID×28
  Mean animal body weight: 19.2 ± 0.6 g
  body weight loss rate: (−5.2%)
[1]; D44, 6 mg/kg i.g. BID×28
  Mean animal body weight: 19.0 ± 0.5 g
  body weight loss rate: (−8.0%)
[1]; D44, 18 mg/kg i.g. BID×28
  Mean animal body weight: 19.1 ± 0.4 g
  body weight loss rate: (−6.9%)
[1]; NCI-N87 tumor-bearing nude mice, summary of Table 6
  effect on body weight compared with blank control group: no significant effect
[2]
  expression of CyclinD1: down-regulated; also recorded: downregulated
  expression of PCNA: up-regulated; also recorded: upregulated
  expression of VEGFA: down-regulated; also recorded: downregulated
  expression of VEGFR2: down-regulated; also recorded: downregulated
  expression of anti-apoptotic protein Survivin: down-regulated; also recorded: downregulated
  expression of cell cycle regulatory protein P21: up-regulated; also recorded: upregulated
  expression of p-VEGFR2: down-regulated; also recorded: downregulated
  expression of pro-apoptotic Bax: down-regulated; also recorded: downregulated
  expression of β-catenin: down-regulated; also recorded: downregulated
[3]; D12
  Mean tumor volume: 155 ± 4 mm^3
[3]; D16
  Mean tumor volume: 200 ± 6** mm^3
  tumor growth inhibition rate (TGI): 29%
[3]; D19
  Mean tumor volume: 263 ± 14** mm^3
  tumor growth inhibition rate (TGI): 27%
[3]; D23
  Mean tumor volume: 336 ± 18** mm^3
  tumor growth inhibition rate (TGI): 30%
[3]; D26
  Mean tumor volume: 421 ± 26** mm^3
  tumor growth inhibition rate (TGI): 33%
[3]; D30
  Mean tumor volume: 509 ± 46** mm^3
  tumor growth inhibition rate (TGI): 43%
[3]; D33
  Mean tumor volume: 577 ± 52** mm^3
  tumor growth inhibition rate (TGI): 45%
[3]; D37
  Mean tumor volume: 681 ± 63** mm^3
  tumor growth inhibition rate (TGI): 46%
[3]; D40
  Mean tumor volume: 758 ± 74** mm^3
  tumor growth inhibition rate (TGI): 47%
[3]; D44
  Mean tumor volume: 871 ± 94** mm^3
  tumor growth inhibition rate (TGI): 45%
[3]; R01 alone 16 mg/kg QD, combinations: R01 3, 6, 16 mg/kg (QD) with DDP
  effect on growth of the NCI-N87 transplanted tumor (summary): significant inhibitory effect
[4]
  Serum UREA content, Mean: 7.83 mmol serum^−1
[5]; 18 mg/kg
  BUN (mmol/L) Mean ± SE: 22.51 ± 1.24 mmol/L
[5]; 36 mg/kg
  BUN (mmol/L) Mean ± SE: 22.69 ± 1.17 mmol/L
